Measured values from ChEMBL document CHEMBL1201862, “PubChem BioAssay data set” (2004).
Activity calls are given as the source filed them.

Experiments:
[1] = biological target: T1, Sentrin-specific protease 6 (Homo sapiens, UniProt Q9GZR1); test: SAR Analysis of small molecule inhibitors of Sentrin-specific protease 6 (SENP6) using a Luminescent assay. [Related pubchem assays (depositor defined):AID2582, AID2599]; type: functional
T1 sequence (Q9GZR1 whole entry): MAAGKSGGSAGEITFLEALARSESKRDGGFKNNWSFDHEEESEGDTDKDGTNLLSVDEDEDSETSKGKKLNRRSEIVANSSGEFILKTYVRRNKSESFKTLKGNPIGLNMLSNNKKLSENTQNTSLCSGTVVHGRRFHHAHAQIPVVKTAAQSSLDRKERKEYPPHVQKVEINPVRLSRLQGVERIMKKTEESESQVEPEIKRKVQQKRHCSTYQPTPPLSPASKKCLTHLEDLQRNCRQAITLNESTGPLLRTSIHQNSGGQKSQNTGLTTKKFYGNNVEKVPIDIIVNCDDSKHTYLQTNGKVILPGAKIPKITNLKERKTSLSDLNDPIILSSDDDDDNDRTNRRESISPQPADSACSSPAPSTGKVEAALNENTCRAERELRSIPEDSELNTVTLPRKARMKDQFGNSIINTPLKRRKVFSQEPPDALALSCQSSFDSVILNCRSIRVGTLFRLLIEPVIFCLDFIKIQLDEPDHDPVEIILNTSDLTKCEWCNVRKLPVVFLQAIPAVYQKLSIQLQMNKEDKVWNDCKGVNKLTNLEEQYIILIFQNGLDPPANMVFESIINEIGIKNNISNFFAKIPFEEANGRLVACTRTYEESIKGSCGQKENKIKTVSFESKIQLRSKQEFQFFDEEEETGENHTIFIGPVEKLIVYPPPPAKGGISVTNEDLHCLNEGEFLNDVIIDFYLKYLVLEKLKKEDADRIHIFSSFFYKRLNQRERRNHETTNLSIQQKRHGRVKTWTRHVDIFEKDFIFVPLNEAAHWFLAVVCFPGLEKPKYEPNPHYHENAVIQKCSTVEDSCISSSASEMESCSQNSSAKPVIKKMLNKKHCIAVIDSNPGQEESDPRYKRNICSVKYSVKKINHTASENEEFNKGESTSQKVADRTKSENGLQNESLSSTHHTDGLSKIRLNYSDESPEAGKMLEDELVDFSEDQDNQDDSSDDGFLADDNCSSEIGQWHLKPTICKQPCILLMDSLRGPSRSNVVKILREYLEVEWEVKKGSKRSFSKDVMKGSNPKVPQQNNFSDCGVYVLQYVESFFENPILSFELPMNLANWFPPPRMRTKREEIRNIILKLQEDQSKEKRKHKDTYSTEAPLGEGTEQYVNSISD

[2] = biological target: T2, Oxysterols receptor LXR-beta (Homo sapiens, UniProt P55055); type: functional, cell-based;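 note: Cell-based luminescence dose-response assay of agonist activity at LXR, run as a confirmatory counterscreen to a daf-12 agonist screen; HEK293 cells with Gal4-LXR fusion and GAL4-driven luciferase reporter; agonist potency from rising luciferase signal of a Gal4-LXR reporter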
T2 sequence (P55055 whole entry): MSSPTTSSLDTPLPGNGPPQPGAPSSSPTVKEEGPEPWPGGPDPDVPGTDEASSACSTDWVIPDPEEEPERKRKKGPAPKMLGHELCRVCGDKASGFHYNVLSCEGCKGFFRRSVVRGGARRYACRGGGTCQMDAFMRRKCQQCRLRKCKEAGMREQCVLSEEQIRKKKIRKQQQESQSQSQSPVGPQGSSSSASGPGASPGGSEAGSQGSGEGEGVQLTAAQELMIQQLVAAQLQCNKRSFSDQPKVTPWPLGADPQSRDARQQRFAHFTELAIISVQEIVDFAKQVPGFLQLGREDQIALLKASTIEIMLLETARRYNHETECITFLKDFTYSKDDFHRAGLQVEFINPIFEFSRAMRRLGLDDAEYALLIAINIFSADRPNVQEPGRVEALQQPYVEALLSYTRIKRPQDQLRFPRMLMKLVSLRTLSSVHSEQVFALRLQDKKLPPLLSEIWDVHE

BJ = test: cytotoxicity toward BJ-TERT fibroblasts, dose response, cell-based, RAS-independent, luminescence (AID 1933); type: functional; conditions: Homo sapiens
[3] = biological target: T3, Short transient receptor potential channel 4 (Mus musculus, UniProt Q9QUQ5); test: mouse TRPC4 channel inhibitors, dose response, cell-based, HEK293 TRPC4/mu-opioid, Fluo-4 calcium (AID 434942); type: functional;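 note: potency of inhibitors blocking the TRPC4 calcium response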
T3 sequence (Q9QUQ5 whole entry): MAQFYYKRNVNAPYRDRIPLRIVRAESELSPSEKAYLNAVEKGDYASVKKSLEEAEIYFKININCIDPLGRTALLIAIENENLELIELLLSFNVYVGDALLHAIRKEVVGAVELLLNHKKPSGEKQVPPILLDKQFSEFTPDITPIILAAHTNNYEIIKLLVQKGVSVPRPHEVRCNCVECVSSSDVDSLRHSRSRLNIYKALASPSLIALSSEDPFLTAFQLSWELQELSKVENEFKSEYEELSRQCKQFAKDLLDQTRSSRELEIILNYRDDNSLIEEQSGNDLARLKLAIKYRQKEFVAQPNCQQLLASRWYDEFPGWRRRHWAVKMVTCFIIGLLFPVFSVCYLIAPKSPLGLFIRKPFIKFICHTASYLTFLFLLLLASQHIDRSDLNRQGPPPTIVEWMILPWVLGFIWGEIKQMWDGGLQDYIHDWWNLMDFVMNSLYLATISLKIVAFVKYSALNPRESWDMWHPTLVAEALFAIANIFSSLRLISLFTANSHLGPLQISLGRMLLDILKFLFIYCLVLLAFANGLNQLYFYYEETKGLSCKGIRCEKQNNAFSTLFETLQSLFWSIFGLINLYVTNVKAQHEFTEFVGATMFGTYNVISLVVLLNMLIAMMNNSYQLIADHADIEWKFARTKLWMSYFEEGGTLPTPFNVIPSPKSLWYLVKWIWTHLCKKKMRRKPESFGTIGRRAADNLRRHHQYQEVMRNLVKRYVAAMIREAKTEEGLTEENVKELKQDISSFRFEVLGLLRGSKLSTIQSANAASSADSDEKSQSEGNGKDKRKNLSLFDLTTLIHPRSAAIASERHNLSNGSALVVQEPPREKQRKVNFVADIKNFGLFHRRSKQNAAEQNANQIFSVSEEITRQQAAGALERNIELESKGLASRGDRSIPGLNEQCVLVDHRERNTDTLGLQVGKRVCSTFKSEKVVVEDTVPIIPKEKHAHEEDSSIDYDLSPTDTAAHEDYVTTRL

Structure (SMILES) | IC50 [1] | EC50 [2] | EC50 (BJ) | EC50 [3]
Oc1ccccc1/C=C/c1noc(-c2ccccc2O)n1 | > 99 µM (inactive) | > 67.6 µM (inactive) | – | –
Cc1nn(-c2ccccc2)c(Cl)c1CN(C(=O)CCl)c1ccc(Cl)cc1 | – | – | 707 nM (inconclusive) | 237 nM (active)
